Earlier results, collected in patent publication EP2583674A2, “ACECLOFENAC SLOW-RELEASE PREPARATION PROVIDING AN OPTIMUM PHARMACOLOGICAL CLINICAL EFFECT WHEN ADMINISTERED ONCE A DAY” (Korea United Pharm, Inc., priority 2010, dated 2011).

[1] = aceclofenac and the metabolites thereof

## O=C(O)COC(=O)Cc1ccccc1Nc1c(Cl)cccc1Cl [aceclofenac, 2-[(2,6-dichlorophenyl)amino]-phenylacetoxyacetic acid]
[1]
  excreted through stool: approximately 20%
  excreted through urine: approximately 70%
In vivo
  excretion rate (half-life): approximately 4 hours
Orally administered
  duration: approximately 12 hours
  onset time: ≤ 30 min
